In ChEMBL document CHEMBL1140165, “Rotationally constrained 2,4-diamino-5,6-disubstituted pyrimidines: a new class of histamine H4 receptor antagonists with improved druglikeness and in vivo efficacy in pain and inflammation models” (J Med Chem, 2008):

Tests used:
Cytochrome P450 3A4 = Cytochrome P450 3A4 (Homo sapiens, UniProt P08684); test: Inhibition of CYP3A4 upto 10 uM; assay type: ADME
Histamine H4 receptor [1] = target: T1, Histamine H4 receptor (Homo sapiens, UniProt Q9H3N8); test: Displacement of [3H]histamine from human histamine H4 receptor expressed in HEK293 cells; assay type: cell-based; settings: read-out: pKi (converted)
Histamine H4 receptor [2] = target: T1, Histamine H4 receptor; settings: HEK293
Histamine H4 receptor [3] = target: T2, Histamine H4 receptor (Rattus norvegicus, UniProt Q91ZY1); test: Antagonist activity at rat histamine H4 receptor expressed in HEK293 cells assessed as inhibition of histamine-induced intracellular calcium elevation by FLIPR assay; assay type: functional, cell-based
[4] = Protein binding in human; assay type: ADME, organism-based; settings: in vivo, read-out: PB (converted)
Liver microsomes [5] = test: Metabolic stability in rat liver microsomes; assay type: ADME, Microsome
Cytochrome P450 2D6 = Cytochrome P450 2D6 (Homo sapiens, UniProt P10635); test: Inhibition of CYP2D6 upto 10 uM; assay type: ADME
[6] = target: Histamine H4 receptor (Rattus norvegicus) (UniProt Q91ZY1); test: Antagonist activity at rat histamine H4 receptor expressed in HEK293 cells assessed as inhibition of histamine-induced intracellular calcium elevation by FLIPR assay relative to histamine; assay type: functional, cell-based
Cytochrome P450 2C9 = Cytochrome P450 2C9 (Homo sapiens, UniProt P11712); test: Inhibition of CYP2C9 upto 10 uM; assay type: ADME
[7] = Metabolic stability in mouse liver microsomes; assay type: ADME, Microsome
Liver microsomes [8] = test: Metabolic stability in human liver microsomes; assay type: ADME, Microsome
Histamine H4 receptor [9] = target: T2, Histamine H4 receptor; test: Displacement of [3H]histamine from rat histamine H4 receptor expressed in HEK293 cells; assay type: cell-based
[10] = Protein binding in rat; assay type: ADME, organism-based; settings: in vivo, read-out: PB (converted)

Sequence of Cytochrome P450 2C9 (P11712 whole entry): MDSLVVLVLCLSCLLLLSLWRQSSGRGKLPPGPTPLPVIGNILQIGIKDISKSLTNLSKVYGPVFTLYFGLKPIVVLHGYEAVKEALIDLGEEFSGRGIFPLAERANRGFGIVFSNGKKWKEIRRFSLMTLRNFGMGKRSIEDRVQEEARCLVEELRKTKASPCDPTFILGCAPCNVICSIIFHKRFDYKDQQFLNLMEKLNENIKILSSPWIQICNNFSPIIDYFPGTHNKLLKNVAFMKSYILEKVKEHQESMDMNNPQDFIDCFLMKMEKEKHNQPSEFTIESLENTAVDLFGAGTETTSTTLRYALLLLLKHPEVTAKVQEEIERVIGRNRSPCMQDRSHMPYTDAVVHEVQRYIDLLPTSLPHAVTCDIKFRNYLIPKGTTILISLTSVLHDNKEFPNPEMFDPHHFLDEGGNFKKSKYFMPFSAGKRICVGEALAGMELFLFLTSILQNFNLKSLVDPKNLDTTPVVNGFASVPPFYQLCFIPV
Sequence of Cytochrome P450 3A4 (P08684 whole entry): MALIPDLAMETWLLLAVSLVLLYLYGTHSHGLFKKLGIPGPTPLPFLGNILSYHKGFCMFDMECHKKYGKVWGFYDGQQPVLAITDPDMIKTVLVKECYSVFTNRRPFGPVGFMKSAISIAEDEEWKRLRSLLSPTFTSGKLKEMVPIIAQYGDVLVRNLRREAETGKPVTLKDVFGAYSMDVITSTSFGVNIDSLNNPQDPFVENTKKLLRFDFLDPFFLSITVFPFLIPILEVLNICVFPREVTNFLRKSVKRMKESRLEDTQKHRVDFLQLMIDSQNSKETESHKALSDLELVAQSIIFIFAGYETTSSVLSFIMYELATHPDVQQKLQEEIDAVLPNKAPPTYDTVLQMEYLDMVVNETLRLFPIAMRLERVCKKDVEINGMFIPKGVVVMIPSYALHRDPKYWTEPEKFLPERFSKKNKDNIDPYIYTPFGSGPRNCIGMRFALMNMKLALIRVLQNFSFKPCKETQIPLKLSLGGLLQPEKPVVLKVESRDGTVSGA
Sequence of Histamine H4 receptor (Rattus norvegicus) (Q91ZY1 whole entry): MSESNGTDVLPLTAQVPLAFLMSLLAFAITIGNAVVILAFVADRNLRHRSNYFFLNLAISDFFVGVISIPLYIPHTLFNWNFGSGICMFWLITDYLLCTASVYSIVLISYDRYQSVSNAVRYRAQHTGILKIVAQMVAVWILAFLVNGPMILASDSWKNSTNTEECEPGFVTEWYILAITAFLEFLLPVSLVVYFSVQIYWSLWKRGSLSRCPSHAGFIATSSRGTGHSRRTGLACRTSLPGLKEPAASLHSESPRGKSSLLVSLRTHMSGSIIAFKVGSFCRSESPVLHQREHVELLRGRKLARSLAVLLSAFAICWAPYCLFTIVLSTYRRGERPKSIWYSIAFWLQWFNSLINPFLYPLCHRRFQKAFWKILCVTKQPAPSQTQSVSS
T2 sequence (Q91ZY1 whole entry): as above
Sequence of Cytochrome P450 2D6 (P10635 whole entry): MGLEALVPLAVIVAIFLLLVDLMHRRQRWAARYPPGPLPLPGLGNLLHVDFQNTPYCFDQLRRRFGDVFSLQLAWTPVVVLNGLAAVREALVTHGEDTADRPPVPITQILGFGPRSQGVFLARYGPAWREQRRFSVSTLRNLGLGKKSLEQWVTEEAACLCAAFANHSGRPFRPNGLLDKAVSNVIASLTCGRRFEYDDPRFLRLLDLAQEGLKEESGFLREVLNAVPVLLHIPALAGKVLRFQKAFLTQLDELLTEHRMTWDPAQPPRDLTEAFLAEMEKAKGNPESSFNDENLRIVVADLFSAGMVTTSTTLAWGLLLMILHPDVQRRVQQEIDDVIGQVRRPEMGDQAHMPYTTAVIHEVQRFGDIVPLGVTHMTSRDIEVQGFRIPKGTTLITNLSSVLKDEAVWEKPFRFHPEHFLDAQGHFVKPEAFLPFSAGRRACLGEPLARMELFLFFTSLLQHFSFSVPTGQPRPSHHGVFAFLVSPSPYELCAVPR
T1 sequence (Q9H3N8 whole entry): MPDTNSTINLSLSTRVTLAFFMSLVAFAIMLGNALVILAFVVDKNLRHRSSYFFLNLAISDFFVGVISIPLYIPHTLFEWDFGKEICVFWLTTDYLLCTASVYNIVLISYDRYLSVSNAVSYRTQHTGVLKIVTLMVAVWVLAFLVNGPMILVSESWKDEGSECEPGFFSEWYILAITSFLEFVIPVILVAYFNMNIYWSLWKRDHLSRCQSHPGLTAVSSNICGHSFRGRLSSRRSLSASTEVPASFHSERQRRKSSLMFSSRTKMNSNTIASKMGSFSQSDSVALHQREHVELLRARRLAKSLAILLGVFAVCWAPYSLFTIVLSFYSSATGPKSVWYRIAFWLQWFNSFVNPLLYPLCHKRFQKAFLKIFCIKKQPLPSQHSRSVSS

Row | SMILES | Activity (Cytochrome P450 3A4) | Ki (Histamine H4 receptor [1]) | pKb (Histamine H4 receptor [2]) | EC50 (Histamine H4 receptor [3]) | fraction unbound [4] | Stability (Liver microsomes [5]) | Activity (Cytochrome P450 2D6) | Efficacy [6] | Activity (Cytochrome P450 2C9) | Stability [7] | Stability (Liver microsomes [8]) | Ki (Histamine H4 receptor [9]) | fraction unbound [10]
1 | Nc1nc2c(c(N3CCNCC3)n1)CCc1ccccc1-2 | Not Active | 0.0525 µM | 7.58 | 0.024 µM | 0.59 | 104 pmol/min/mg | Not Active | 52% | Not Active | 18.4 pmol/min/mg | 45.9 pmol/min/mg | 0.00912 µM | 0.73
2 | CN[C@@H]1CCN(c2nc(N)nc3c2Cc2ccccc2-3)C1 | – | – | 8.5 | 0.0191 µM | – | – | – | – | – | – | – | – | –
3 | CN1CCN(c2cc(-c3ccccc3)nc(N)n2)CC1 | Not Active | 0.00501 µM | 8.39 | – | 0.51 | 168 pmol/min/mg | Not Active | 79% | Not Active | 119 pmol/min/mg | 22 pmol/min/mg | 0.0141 µM | 0.35
4 | CN1CCN(c2nc(N)nc3c2CCc2ccccc2-3)CC1 | Not Active | 0.0155 µM | 8.08 | 0.0155 µM | 0.22 | 192 pmol/min/mg | Not Active | 76% | Not Active | 195 pmol/min/mg | 102 pmol/min/mg | 0.00537 µM | 0.3
5 | Nc1nc2c(c(N3CCNCC3)n1)Cc1ccccc1-2 | Not Active | 0.0129 µM | 8.75 | 0.02 µM | 0.72 | 65.8 pmol/min/mg | Not Active | 96% | Not Active | 43.6 pmol/min/mg | 18.7 pmol/min/mg | 0.00479 µM | 0.31
